Holding throughout (assay type): functional
The test system of assay [1] is RAW264.7. In words: Anti-inflammatory activity in mouse RAW264.7 cells assessed as inhibition of LPS-induced COX-2 expression measured after 24 hrs by Western blot analysis relatively to control. (A western blot detects proteins with antibodies after separation by electrophoresis.)
The test system of assay [2] is RAW264.7. The experiment in a line: Anti-inflammatory activity in mouse RAW264.7 cells assessed as inhibition of LPS-induced Il-1beta secretion measured after 24 hrs by Western blot analysis relatively to control.
In assay [3] the test system is RAW264.7. In words: Potency index, ratio of ibuprofen to test compound for anti-inflammatory activity in mouse RAW264.7 cells assessed as inhibition of LPS-induced IL-beta secretion.

Each structure is given as a SMILES string.

`Cc1ccc(S(=O)(=O)Nc2ccc3ccccc3c2C(=O)O)cc1`: the “inhibition (INH)” value in the assay on RAW264.7 [1] came out at 34%; in the assay on RAW264.7 [2], 9%.
For `COc1ccc(S(=O)(=O)Nc2cccc(C)c2C(=O)O)cc1`, in that order: 51% and 88%.
For `Cc1ccc(S(=O)(=O)Nc2cccc(Br)c2C(=O)O)cc1`, the entries for the “inhibition (INH)” value with RAW264.7 [1] and in the assay with RAW264.7 [2] were 18% and 42%, respectively.
`Cc1cccc(NS(=O)(=O)c2ccc([N+](=O)[O-])cc2)c1C(=O)O`: the Ratio in the assay on RAW264.7 [3] is reported as 1.5 - 2.5. Besides, the “inhibition (INH)” value in the assay with RAW264.7 [1] is 67%; in the assay with RAW264.7 [2], 66%.
For `Cc1ccc(S(=O)(=O)Nc2cccc([N+](=O)[O-])c2C(=O)O)cc1`, in that order: 1.5 - 2.5, -1% and 81%.
Take `Cc1cccc(NS(=O)(=O)c2ccc(Br)cc2)c1C(=O)O`: the figures for the “inhibition (INH)” value in the assay on RAW264.7 [1] and in the assay on RAW264.7 [2] were 36% and 98%, respectively.
In the case of `Cc1cccc(NS(=O)(=O)c2ccccc2F)c1C(=O)O`, the “inhibition (INH)” value stood at 42% in the assay on RAW264.7 [1] and 35% in the assay on RAW264.7 [2].
For `Cc1cccc(NS(=O)(=O)c2ccc(C(F)(F)F)cc2)c1C(=O)O`, in that order: 55% and 54%.
Turning to `CC(C)Cc1ccc(C(C)C(=O)O)cc1` (configuration not stated) [IBUPROFEN], the “inhibition (INH)” value in the assay with RAW264.7 [1] is listed as 54%; with RAW264.7 [2], 35%.
Take `Cc1ccc(S(=O)(=O)Nc2cccc(NS(=O)(=O)c3ccc(C)cc3)c2C(=O)O)cc1`: the “inhibition (INH)” value with RAW264.7 [1] is 22%; in the assay with RAW264.7 [2], -21%.
In the case of `Cc1ccc(S(=O)(=O)Nc2cc(C)cc(C)c2C(=O)O)cc1`, the “inhibition (INH)” value in the assay with RAW264.7 [1] is on record as 52%; in the assay with RAW264.7 [2], 45%.
The corresponding values for `Cc1ccc(S(=O)(=O)Nc2cccc(C(F)(F)F)c2C(=O)O)cc1` are 69% and 21%.
With `Cc1ccc(S(=O)(=O)Nc2cc(C)cc(NS(=O)(=O)c3ccc(C)cc3)c2C(=O)O)cc1`, the Ratio in the assay with RAW264.7 [3] is on record as 1.5 - 2.5. In addition, the “inhibition (INH)” value with RAW264.7 [1] is recorded as -8%; in the assay with RAW264.7 [2], 66%.
For the compound `Cc1ccc(S(=O)(=O)Nc2ccc(C)cc2C(=O)O)cc1`, the “inhibition (INH)” value turned out to be 49% in the assay with RAW264.7 [1] and 20% in the assay on RAW264.7 [2].
As for `COc1cccc(NS(=O)(=O)c2ccc(C)cc2)c1C(=O)O`, in the assay with RAW264.7 [3], the Ratio was 1.5 - 2.5. For the same compound, the “inhibition (INH)” value in the assay on RAW264.7 [1] turned out to be 51%; in the assay with RAW264.7 [2] it was 66%.
For the compound `Cc1cccc(NS(=O)(=O)c2ccccc2)c1C(=O)O`, the “inhibition (INH)” value with RAW264.7 [1] worked out at 22%; in the assay with RAW264.7 [2], 52%.
For `Cc1cccc(NS(=O)(=O)c2ccc3ccccc3c2)c1C(=O)O`, in that order: 33% and 6%.
In the case of `COc1ccc(NS(=O)(=O)c2ccc(C)cc2)c(C(=O)O)c1NS(=O)(=O)c1ccc(C)cc1`, the “inhibition (INH)” value in the assay on RAW264.7 [1] was 34%; in the assay on RAW264.7 [2], -21%.
On to `Cc1ccc(S(=O)(=O)Nc2cccc(F)c2C(=O)O)cc1`, for which the Ratio in the assay on RAW264.7 [3] is 1.5 - 2.5. Also, the “inhibition (INH)” value in the assay with RAW264.7 [1] was 3%; in the assay with RAW264.7 [2], 82%.
As for `Cc1ccc(S(=O)(=O)Nc2cccc(Cl)c2C(=O)O)cc1`, the “inhibition (INH)” value in the assay on RAW264.7 [1] is given as -4%; with RAW264.7 [2], 45%.
The corresponding values for `Cc1ccc(S(=O)(=O)Nc2cccc(C)c2C(=O)O)cc1` are 72% and 37%.

The values are drawn from ChEMBL document CHEMBL4017459, “Synthesis and anti-inflammatory evaluation of N-sulfonyl anthranilic acids via Ir(III)-catalyzed C-H amidation of benzoic acids” (2017).
